According to patent US7960164B2, “Selective growth medium for Listeria spp” (Paradigm Diagnostics, Inc., priority 2004, dated 2011):

Legend:
Bacillus spp. = assay: Inhibition of Bacillus spp. by acriflavin; type: cell-based
L. monocytogenes = assay: Effect of acriflavin on hemolytic activity of L. monocytogenes; type: cell-based

Acriflavin
Inhibition of Bacillus spp. (Bacillus spp.): consistently inhibits all of the Bacillus spp.
Effect on hemolytic activity of L. monocytogenes (L. monocytogenes): inhibits the hemolytic activity of L. monocytogenes
